{"source": "patent US9181243B2", "about": "“Solvate form M of trametinib dimethyl sulfoxide and methods of making and using thereof” (HANGZHOU PUSHAI PHARMACEUTICAL TECHNOLOGY CO., LTD., priority 2014, dated 2015)", "key": {"[1]": {"assay": "Storage stability of crystalline form followed by XRPD", "settings": "44% RH, room temperature, 9 months"}, "[2]": {"settings": "volume distribution"}, "[3]": {"assay": "Isothermal sorption (hygroscopicity)", "settings": "between 20-80% RH (relative humidity)"}, "[4]": {"tested_on": "advanced melanoma with BRAF V600E/K mutations", "settings": "versus traditional chemotherapy drugs; cited from earlier work"}}, "note": "Where two headings read alike, the source gives them in different places."}
{"smiles": "CC(=O)Nc1cccc(-n2c(=O)n(C3CC3)c(=O)c3c(Nc4ccc(I)cc4F)n(C)c(=O)c(C)c32)c1", "note": "[Form M]", "values": [{"measurement": "crystalline form change on storage (XRPD pattern)", "setting": "[1]", "result": "no signs of form change"}, {"measurement": "D10", "setting": "[2]; listed as Example 8", "result": 18, "unit": "μm"}, {"measurement": "D50", "setting": "[2]; listed as Example 8", "result": 40, "unit": "μm"}, {"measurement": "D90", "setting": "[2]; listed as Example 8", "result": 85, "unit": "μm"}, {"measurement": "D10", "setting": "[2]; listed as Example 9", "result": 9, "unit": "μm"}, {"measurement": "D50", "setting": "[2]; listed as Example 9", "result": 24, "unit": "μm"}, {"measurement": "D90", "setting": "[2]; listed as Example 9", "result": 72, "unit": "μm"}, {"measurement": "weight change in isothermal sorption", "setting": "[3]", "result": "about 1.07%"}]}
{"smiles": "CC(=O)Nc1cccc(-n2c(=O)n(C3CC3)c(=O)c3c(Nc4ccc(I)cc4F)n(C)c(=O)c(C)c32)c1", "note": "[trametinib, N-{3-[3-cyclopropyl-5-(2-fluoro-4-iodo-phenylamino)-3,4,6,7-tetrahydro-6,8-dimethyl-2,4,7-trioxo-pyrido[4,3-d]pyrimidin-1(2H)-yl]phenyl}acetamide]", "values": [{"measurement": "therapeutic effect", "setting": "[4]", "result": "significantly better than traditional chemotherapy drugs"}]}
{"smiles": "CC(=O)Nc1cccc(-n2c(=O)n(C3CC3)c(=O)c3c(Nc4ccc(I)cc4F)n(C)c(=O)c(C)c32)c1.C[S+](C)[O-]", "note": "[Reference Example 1, Trametinib dimethyl sulfoxide solvate, reference compound]", "values": [{"measurement": "crystalline form change on storage (XRPD pattern)", "setting": "[1]; listed as trametinib dimethyl sulfoxide solvate obtained by the conventional methods", "result": "its patterns changed"}, {"measurement": "crystalline form change on storage (XRPD pattern)", "setting": "[1]; listed as trametinib dimethyl sulfoxide solvates obtained by conventional methods", "result": "changed its XRD pattern"}, {"measurement": "D10", "setting": "[2]", "result": 3, "unit": "μm"}, {"measurement": "D50", "setting": "[2]", "result": 8, "unit": "μm"}, {"measurement": "D90", "setting": "[2]", "result": 36, "unit": "μm"}]}
